Earlier results on four compounds are cited in PubChem BioAssay AID1259409 (Chemical Carcinogenesis Research Information System (CCRIS), 2018).

The data set concerns rodent chemically induced tumor inhibition, incidence and multiplicity. In words: CCRIS tumor inhibitor studies.

“And” between values parts separate entries of the source, which are not always exact repeats. Equal entries are not always repeated.

For `O=C(O)[C@@H]1CCCN1` (tested in a mixture with another compound), the “tumour outcome (control, treated, inhibition, significance)” value was 22/23 (96%), 5/23 (22%), 77%, p<0.001 (Carcinogen: N-NITROSODIETHYLAMINE, 55-18-5, Dose [Inhibitor]: 0, 50 MG/KG 2/WK 1 HR PRIOR TO AND 24 HR POST CARCINOGEN TREATMENT FOR 10 WK (STUDY DURATION: 28 WK), Route [Inhibitor]: INTRAPERITONEAL, Species: RAT, Strain/Sex: BD-6/MALE, Target Tissue: Type of Lesion: LIVER: TUMOR, Dose [Carcinogen]: 80 MG/KG 1/WK FOR 10 WK, Promoter: NONE USED); 22/23 (96%), 9/21 (43%), 55%, p<0.001 (Carcinogen: N-NITROSODIETHYLAMINE, 55-18-5, Dose [Inhibitor]: 0, 100 MG/KG 2/WK 1 HR PRIOR TO AND 24 HR POST CARCINOGEN TREATMENT FOR 10 WK (STUDY DURATION: 28 WK), Route [Inhibitor]: INTRAPERITONEAL, Species: RAT, Strain/Sex: BD-6/MALE, Target Tissue: Type of Lesion: LIVER: TUMOR, Dose [Carcinogen]: 80 MG/KG 1/WK FOR 10 WK, Promoter: NONE USED); 22/23 (96%), 8/20 (40%), 58%, not calculated (Carcinogen: N-NITROSODIETHYLAMINE, 55-18-5, Dose [Inhibitor]: 0, 100 MG/KG 2/WK 1 HR PRIOR TO AND 24 HR POST CARCINOGEN TREATMENT FOR 10 WK (STUDY DURATION: 40 WK), Route [Inhibitor]: INTRAPERITONEAL, Species: RAT, Strain/Sex: BD-6/MALE, Target Tissue: Type of Lesion: LIVER: TUMOR, Dose [Carcinogen]: 80 MG/KG 1/WK FOR 10 WK, Promoter: NONE USED).

With `CC(=O)OC12C[C@@H](C)[C@@]3(O)[C@@H](C=C(CO)C[C@]4(O)C(=O)C(C)=C[C@@H]34)C1C2(C)C` (stereo partly drawn), the “tumour outcome (control, treated, inhibition, significance)” value reads like this: (Carcinogen: 7,12-DIMETHYLBENZ[A]ANTHRACENE, 57-97-6, Dose [Inhibitor]: 0, 256 NMOL 15 D POST INITIATION DOSE FOLLOWED BY 2.56 NMOL 2/WK DURING WK 3-22 APPLIED 15 MIN PRIOR TO EACH PROMOTION D, Route [Inhibitor]: DERMAL, Species: MOUSE, Strain/Sex: CD-1/FEMALE, Target Tissue: Type of Lesion: SKIN: PAPILLOMA, Dose [Carcinogen]: 20 NMOL IN 200 µL ACETONE ONCE) 100%, 95%, 5%, not calculated; (Carcinogen: 7,12-DIMETHYLBENZ[A]ANTHRACENE, 57-97-6, Dose [Inhibitor]: 0, 256 NMOL 15 D POST INITIATION DOSE FOLLOWED BY 2.56 UMOL 2/WK DURING WK 3-22 APPLIED 15 MIN PRIOR TO EACH PROMOTION D, Route [Inhibitor]: DERMAL, Species: MOUSE, Strain/Sex: CD-1/FEMALE, Target Tissue: Type of Lesion: SKIN: PAPILLOMA, Dose [Carcinogen]: 20 NMOL IN 200 µL ACETONE ONCE) 94%, 40%, 57%, not calculated; (Carcinogen: 7,12-DIMETHYLBENZ[A]ANTHRACENE, 57-97-6, Dose [Inhibitor]: 0, 256 NMOL 15 D POST INITIATION DOSE FOLLOWED BY 25.6 NMOL 2/WK DURING WK 3-22 APPLIED 15 MIN PRIOR TO EACH PROMOTION D, Route [Inhibitor]: DERMAL, Species: MOUSE, Strain/Sex: CD-1/FEMALE, Target Tissue: Type of Lesion: SKIN: PAPILLOMA, Dose [Carcinogen]: 20 NMOL IN 200 µL ACETONE ONCE) 94%, 83%, 12%, not calculated and 100%, 80%, 20%, not calculated; (Carcinogen: 7,12-DIMETHYLBENZ[A]ANTHRACENE, 57-97-6, Dose [Inhibitor]: 0, 256 NMOL 15 D POST INITIATION DOSE FOLLOWED BY 25.6 PMOL 2/WK DURING WK 3-22 APPLIED 15 MIN PRIOR TO EACH PROMOTION D, Route [Inhibitor]: DERMAL, Species: MOUSE, Strain/Sex: CD-1/FEMALE, Target Tissue: Type of Lesion: SKIN: PAPILLOMA, Dose [Carcinogen]: 20 NMOL IN 200 µL ACETONE ONCE) 100%, 97%, 3%, not calculated; (Carcinogen: 7,12-DIMETHYLBENZ[A]ANTHRACENE, 57-97-6, Dose [Inhibitor]: 0, 256 NMOL 15 D POST INITIATION DOSE FOLLOWED BY 256 NMOL 2/WK DURING WK 3-22 APPLIED 15 MIN PRIOR TO EACH PROMOTION DO, Route [Inhibitor]: DERMAL, Species: MOUSE, Strain/Sex: CD-1/FEMALE, Target Tissue: Type of Lesion: SKIN: PAPILLOMA, Dose [Carcinogen]: 20 NMOL IN 200 µL ACETONE ONCE) 94%, 33%, 65%, not calculated and 100%, 58%, 42%, not calculated; (Carcinogen: 7,12-DIMETHYLBENZ[A]ANTHRACENE, 57-97-6, Dose [Inhibitor]: 0, 256 NMOL 15 D POST INITIATION DOSE FOLLOWED BY 256 PMOL 2/WK DURING WK 3-22 APPLIED 15 MIN PRIOR TO EACH PROMOTION DO, Route [Inhibitor]: DERMAL, Species: MOUSE, Strain/Sex: CD-1/FEMALE, Target Tissue: Type of Lesion: SKIN: PAPILLOMA, Dose [Carcinogen]: 20 NMOL IN 200 µL ACETONE ONCE) 100%, 100%, 0%, not significant.

`COc1ccc2cc3[n+](cc2c1OC)CCc1cc2c(cc1-3)OCO2`: the “tumour outcome (control, treated, inhibition, significance)” value is 100%, 40%, 60%, not calculated (Carcinogen: METHYLCHOLANTHRENE, 56-49-5, Dose [Inhibitor]: 0, 0.5 MG/KG BW BY GAVAGE 3/WK FOR 8 WK (STUDY DURATION: 180 D), Route [Inhibitor]: ORAL, Species: MOUSE, Strain/Sex: SWISS/MALE, Target Tissue: Type of Lesion: SKIN: SARCOMA, Dose [Carcinogen]: 200 UG/ANIMAL ONCE 5 D POST INHIBITOR TREATMENT); 100%, 47%, 53%, not calculated (Carcinogen: METHYLCHOLANTHRENE, 56-49-5, Dose [Inhibitor]: 0, 2.5 MG/KG BW BY GAVAGE 3/WK FOR 8 WK (STUDY DURATION: 180 D), Route [Inhibitor]: ORAL, Species: MOUSE, Strain/Sex: SWISS/MALE, Target Tissue: Type of Lesion: SKIN: SARCOMA, Dose [Carcinogen]: 200 UG/ANIMAL ONCE 5 D POST INHIBITOR TREATMENT); 100%, 67%, 33%, not calculated (Carcinogen: METHYLCHOLANTHRENE, 56-49-5, Dose [Inhibitor]: 0, 5 MG/KG BW BY GAVAGE 3/WK FOR 8 WK (STUDY DURATION: 180 D), Route [Inhibitor]: ORAL, Species: MOUSE, Strain/Sex: SWISS/MALE, Target Tissue: Type of Lesion: SKIN: SARCOMA, Dose [Carcinogen]: 200 UG/ANIMAL ONCE 5 D POST INHIBITOR TREATMENT); 100%, 100%, 0%, not significant (Carcinogen: N,N-DIETHYLNITROSAMINE, 55-18-5, Dose [Inhibitor]: 0, 10 MG/KG BW BY GAVAGE 5 D/WK FOR 141 D (STUDY DURATION: 30 WK), Route [Inhibitor]: ORAL, Species: RAT, Strain/Sex: WISTAR/FEMALE, Target Tissue: Type of Lesion: LIVER: TUMOR, Dose [Carcinogen]: 0.02% IN DISTILLED WATER BY GAVAGE 5 D/WK FOR 20 WK BEGINNING 1 D POST INHIBITOR FIRST DOSE); 100%, 50%, 50%, not significant (Carcinogen: N,N-DIETHYLNITROSAMINE, 55-18-5, Dose [Inhibitor]: 0, 25 MG/KG BW BY GAVAGE 5 D/WK FOR 141 D (STUDY DURATION: 30 WK), Route [Inhibitor]: ORAL, Species: RAT, Strain/Sex: WISTAR/FEMALE, Target Tissue: Type of Lesion: LIVER: TUMOR, Dose [Carcinogen]: 0.02% IN DISTILLED WATER BY GAVAGE 5 D/WK FOR 20 WK BEGINNING 1 D POST INHIBITOR FIRST DOSE); 100%, 50%, 50%, not significant (Carcinogen: N,N-DIETHYLNITROSAMINE, 55-18-5, Dose [Inhibitor]: 0, 50 MG/KG BW BY GAVAGE 5 D/WK FOR 141 D (STUDY DURATION: 30 WK), Route [Inhibitor]: ORAL, Species: RAT, Strain/Sex: WISTAR/FEMALE, Target Tissue: Type of Lesion: LIVER: TUMOR, Dose [Carcinogen]: 0.02% IN DISTILLED WATER BY GAVAGE 5 D/WK FOR 20 WK BEGINNING 1 D POST INHIBITOR FIRST DOSE).

For the compound `COc1c(O)cc(C2Oc3c(c(O)cc(O)c3[C@H]3c4c(O)cc(O)cc4O[C@H](c4ccc(O)cc4)[C@@H]3O)C[C@H]2O)cc1O` (stereo partly drawn), the “tumour outcome (control, treated, inhibition, significance)” value runs as follows: (Carcinogen: DIMETHYLNITROSAMINE [62-75-9], Dose [Inhibitor]: 100 MG/KG BW FOR 3 MO ADMINISTERED BEFORE CARCINOGEN (STUDY DURATION: 12 MO), Route [Inhibitor]: DIET, Species: MOUSE, Strain/Sex: B6C3F1/MALE, Target Tissue: Type of Lesion: LIVER: TUMOR, Dose [Carcinogen]: 5 MG/KG BW 3 X A WK FOR 2 MO, THEN 10 MG/KG 2 X WK FOR 4 WKS AFTER 3 MO OF GSPE) 85% (dmn); 60% gspe before dmn, 29%, not calculated; (Carcinogen: DIMETHYLNITROSAMINE [62-75-9], Dose [Inhibitor]: 100 MG/KG BW FOR 9 MO AFTER CARCINOGEN TREATMENT (STUDY DURATION: 12 MO), Route [Inhibitor]: DIET, Species: MOUSE, Strain/Sex: B6C3F1/MALE, Target Tissue: Type of Lesion: LIVER: TUMOR, Dose [Carcinogen]: 5 MG/KG BW 3 X A WK FOR 2 MO, THEN 10 MG/KG 2 X WK FOR 1 MO) 85% (dmn); 55% gspe, 35%, not calculated; (Carcinogen: DIMETHYLNITROSAMINE [62-75-9], Dose [Inhibitor]: 100 MG/KG BW FOR DURATION OF EXPERIMENT (STUDY DURATION: 12 MO), Route [Inhibitor]: DIET, Species: MOUSE, Strain/Sex: B6C3F1/MALE, Target Tissue: Type of Lesion: LIVER: TUMOR, Dose [Carcinogen]: 5 MG/KG BW 3 X A WK FOR 2 MO, THEN 10 MG/KG 2 X WK FOR 4 WKS) 85% (dmn); 45% gspe, 47%, not calculated.
